ChEMBL document CHEMBL1201862, “PubChem BioAssay data set” (2004)
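Growth conditions: 96-well plates. Treatment: test compound, 48 hours, 5 concentrations. Analysis: linear interpolation between bracketing concentrations; unreached endpoints set to highest concentration. GI50 marks 50% less growth.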 The source made the active and inactive calls. Cut-off read from the data, not from the text of the source: active = GI50 up to about 1.1 µM and inactive = higher.

Assays:
Assay in all cases: DTP human tumour cell line panel, 48 h
SF-268 = tested on: SF-268
786-0 = tested on: 786-0
KM12 = tested on: KM12
SNB-78 = tested on: SNB-78
SW-620 = tested on: SW-620
UACC-62 = tested on: UACC-62
M14 = tested on: M14
BT-549 = tested on: BT-549
NCI-H23 = tested on: NCI-H23
HCT-116 = tested on: HCT-116
CCRF-CEM = tested on: CCRF-CEM
K562 = tested on: K562
SK-MEL-28 = tested on: SK-MEL-28
NCI-H460 = tested on: NCI-H460
CAKI-1 = tested on: CAKI-1
SN12C = tested on: SN12C
COLO 205 = tested on: COLO 205
NCI/ADR-RES = tested on: NCI/ADR-RES
A498 = tested on: A498
NCI-H226 = tested on: NCI-H226

Measured: GI50

COc1cccc2c1C1(O)C2CCCCCCCCCC12OCCCO2 (stereo unspecified)
inactive: SF-268 9.82 µM | 786-0 32.7 µM | KM12 > 38 µM | SNB-78 > 100 µM | SW-620 > 46.7 µM | UACC-62 > 100 µM | M14 > 58.1 µM | BT-549 92 µM | NCI-H23 > 58.6 µM | HCT-116 6.81 µM | CCRF-CEM 8.32 µM | K562 6.19 µM | SK-MEL-28 > 100 µM | NCI-H460 6.25 µM | CAKI-1 > 100 µM | SN12C > 49.7 µM | COLO 205 > 33.8 µM | NCI/ADR-RES > 100 µM | A498 > 58.2 µM | NCI-H226 > 47.9 µM

C=C(C)C1Cc2c(cc(OC)c3c(=O)c4ccccc4n(C)c23)O1 (stereo unspecified)
inactive: SF-268 > 100 µM | 786-0 > 100 µM | KM12 > 100 µM | SNB-78 > 100 µM | SW-620 > 100 µM | UACC-62 37.8 µM | M14 > 100 µM | NCI-H23 > 100 µM | HCT-116 > 100 µM | CCRF-CEM > 100 µM | K562 57.5 µM | SK-MEL-28 49 µM | NCI-H460 > 100 µM | CAKI-1 > 100 µM | SN12C > 100 µM | COLO 205 > 100 µM | A498 > 100 µM | NCI-H226 > 100 µM

O=C1[C@H]2ON(c3ccccc3)C(c3ccc(Cl)cc3Cl)[C@H]2C(=O)N1c1ccc(Cc2ccc(N3C(=O)[C@@H]4ON(c5ccccc5)C(c5ccc(Cl)cc5Cl)[C@@H]4C3=O)cc2)cc1 (stereo partly specified)
inactive: SF-268 > 100 µM | 786-0 > 100 µM | KM12 > 100 µM | SNB-78 > 100 µM | SW-620 > 100 µM | UACC-62 > 100 µM | M14 19.6 µM | NCI-H23 > 100 µM | HCT-116 > 100 µM | CCRF-CEM > 100 µM | K562 > 100 µM | SK-MEL-28 > 100 µM | NCI-H460 > 100 µM | CAKI-1 > 100 µM | SN12C > 100 µM | COLO 205 > 100 µM | A498 > 100 µM | NCI-H226 > 100 µM

C=C1C(=O)OC2/C=C(\C)C3OC3/C=C(/C(=O)OC)C(OC(C)=O)C(OC(=O)C(C)(O)C(C)OC(C)=O)C12 (stereo unspecified)
inactive: SF-268 5.55 µM | 786-0 2.22 µM | KM12 2.49 µM | SNB-78 2.53 µM | UACC-62 1.7 µM | M14 2.39 µM | NCI-H23 2.5 µM | HCT-116 1.27 µM | SK-MEL-28 2.23 µM | NCI-H460 3.45 µM | CAKI-1 4.36 µM | SN12C 2.67 µM | COLO 205 1.29 µM | A498 3.24 µM | NCI-H226 6.89 µM
active: SW-620 0.796 µM | BT-549 1.04 µM | CCRF-CEM 0.305 µM | K562 0.741 µM

O=C(/C=C/c1ccc(O)cc1)c1ccc(O)cc1 [4,4'-DIHYDROXYCHALCONE]
inactive: SF-268 21.4 µM | 786-0 23.2 µM | KM12 11.9 µM | SNB-78 45.2 µM | SW-620 26.1 µM | UACC-62 25.5 µM | M14 18.8 µM | BT-549 32.6 µM | NCI-H23 25.5 µM | HCT-116 16.8 µM | CCRF-CEM 13.6 µM | K562 27.2 µM | SK-MEL-28 28.1 µM | NCI-H460 26.8 µM | CAKI-1 18.1 µM | SN12C 31.2 µM | COLO 205 30.4 µM | NCI/ADR-RES 21.6 µM | A498 31 µM | NCI-H226 16.8 µM

C/C(=N\N=C(N)N)c1sc(-c2nc(C)c(/C(C)=N/N=C(N)N)s2)nc1C
inactive: SF-268 > 100 µM | 786-0 > 47.9 µM | KM12 > 36.2 µM | SNB-78 > 100 µM | SW-620 > 100 µM | UACC-62 > 100 µM | M14 > 100 µM | NCI-H23 > 100 µM | HCT-116 > 100 µM | CCRF-CEM > 60.7 µM | K562 > 67.8 µM | SK-MEL-28 > 100 µM | NCI-H460 > 62.5 µM | CAKI-1 > 100 µM | SN12C > 100 µM | COLO 205 > 52.5 µM | A498 > 100 µM | NCI-H226 > 100 µM

NS(=O)(=O)c1ccc(Nc2c3ccccc3nc3c(C(=O)N4CCN(CCO)CC4)cccc23)cc1
inactive: SF-268 > 100 µM | 786-0 > 100 µM | KM12 93.5 µM | SNB-78 69.3 µM | SW-620 > 100 µM | UACC-62 > 100 µM | M14 > 100 µM | NCI-H23 > 100 µM | HCT-116 > 100 µM | CCRF-CEM 95.3 µM | K562 53.2 µM | SK-MEL-28 > 100 µM | NCI-H460 > 100 µM | CAKI-1 > 100 µM | SN12C > 100 µM | COLO 205 > 100 µM | A498 > 100 µM | NCI-H226 > 100 µM
